Values quoted from earlier work as cited in patent publication US10568966B2, “Formulation for topical wound treatment” (AHMET KILIC, priority 2014, dated 2020).

What was measured:
[1] = CLP-Regulation (EC) No 1272/2008

Compound | GHS Classification [1] | LD50 Acute oral (Rat)
Cocamidopropyl Betaine [CRODATERIC ™ CAB 30-LQ-(RB)] | Eye Irrit. 2; H319 | 
C=CCCCCCCCCC(=O)NCCC[N+](C)(C)CC(=O)[O-] [Rewoteric ® AM B U 185, Undecylenamidopropyl Betaine] |  | >2.000 mg/kg
Lauramidopropyl betaine [CRODATERIC ™ CAB 30-LQ-(TH)] |  | >4.900 mg/kg
